Experimental data taken from article PMC10159843, “Babesia duncani multi-omics identifies virulence factors and drug targets” (Nature Microbiology, 2023).

Test system: BdATVR parasites
Type: cell-based, Babesia duncani
Details: IC50 BdATVR versus WA1

## O=C1C(O)=C([C@H]2CC[C@H](c3ccc(Cl)cc3)CC2)C(=O)c2ccccc21 [Atovaquone]
  fold resistance of BdATVR compared with WA1: 15.2 fold
